Results reported in US8859508B2, “Application of 5-methyl-1,3-benzenediol or derivatives thereof in the preparation of medicines and functional foods for treatment or prevention of depression” (Kunming Institute of Botany, Chinese Academy of Sciences, priority 2007, dated 2014).

Experiments:
rats [1] = test: Subacute toxicity test of ORG in rats; type: in vivo
Method: Rats (Certificate Number: A4CXK(Chuan)2003-16) from the Institute of Experimental Animals, People's Hospital of Sichuan Province, were used. Their weight was 250-300 g. ORG was prepared as described in Example 1.
There was no significant difference between the two groups.

Kunming mice [2] = test: Morris water maze (MWM) in mice; type: in vivo, mouse
Method: Kunming mice (Certificate Number: A4CXK(Chuan)2003-16) from the Institute of Experimental Animals, People's Hospital of Sichuan Province, were used. They were 3-4 weeks old at the beginning of the experiment and weighed 25-30 g. ORG was prepared as described in Example 1. Animals were divided into drug administration groups with fluoxetine or different doses of ORG and a vehicle control group. The drug administration groups received 1.75 mg/kg or 3.5 mg/kg of ORG or 15 mg/kg of fluoxetine. Animals received a single i.p. injection of drug or vehicle 30 min either after training every day or 30 min before the retention test on day 8.
Morris water maze: The MWM was performed in a circular pool (100 cm in diameter and 36 cm in depth) with a hidden platform (10 cm×10 cm) that was approximately 1 cm below the water surface. The pool was surrounded by yellow curtains with different shaped markers hanging in each quadrant. The time spent to find the hidden platform and the trajectory of the mouse were recorded by computer. From days 1 to 7, mice were placed in the pool to find the fixed hidden platform. On day 8, the platform was removed and the time that the mouse spent in the target quadrant was counted in 1 min of free swimming.
(§1) Data analysis: The results of the test are expressed as mean±SEM. One-way ANOVA was used followed by the LSD test with SPSS 11 software. The significance level was set at P<0.05.

rats [3] = test: Footshock-induced freezing behavior test in rats; type: in vivo, rat; details: i.p. 24 h and 5 h before test
Method: (§2) Kunming mice (Certificate Number: A4CXK(Chuan)2003-16) from the Institute of Experimental Animals, People's Hospital of Sichuan Province, were used. They were 3-4 weeks old at the beginning of the experiment and weighed 25-30 g. ORG was prepared as described in Example 1. Animals were divided into drug administration groups with different doses of ORG, a vehicle control group, and a diazepam group (Jinyao Ltd. Co., Batch No. 106k1588) as positive control.
Footshock-induced freezing behavior: Animals received an i.p. injection of ORG or vehicle 24 h and 5 h before being placed in a standard conditioning chamber (Med Associates, USA) for a 10 min training session. Two, 4, 6, 8, and 10 min after the onset of the session, a footshock (0.8 mA, 2 s) was delivered through the grid floor of the chamber. The freezing time during the last 5 min were recorded. Rats were placed in the chamber again without footshock 24 h after the first training, and the freezing time was recorded.
as §1

Kunming mice [4] = test: Forced swim test (FST) in mice
CMS model mice = test: FST in chronic unpredictable mild stress (CMS) model mice; type: in vivo, mouse; details: for Immobility time (s) (mean ± SEM): oral once a day for 7 days
Method: as §2, with “experiments” for “the experiment”, “experiment” for “drug administration”, “doses,” for “doses of ORG,”, “an imipramine” for “a diazepam”, “(Sigma,” for “(Jinyao Ltd. Co.,”
CMS model: The chronic mild stresses that Kunming mice were subjected to were reversal of circadian rhythm, continuous light, cold, damp bedding, tilt cages, food and water restriction, and restraint. […] The stress period lasted for 8 weeks. In the last week, ORG was administered orally once a day for 7 consecutive days. The behavioral test was carried out 30 min after the last administration. The parameter tested was immobility time in the FST and TST in the CMS model mice. The methods of FST and TST and data analysis were as described above.

DD model mice = test: FST in constant darkness (DD) model mice; type: in vivo, mouse; details: for Immobility time (s) (mean ± SEM): oral once a day for 1 week
Method: as §2, with “experiments” for “experiment”, “experimental” for “drug administration”, “doses,” for “doses of ORG, a”, “groups,” for “group,”, “an imipramine” for “a diazepam”, “(Sigma,” for “(Jinyao Ltd. Co.,”
DD model in mice: Mice were kept under 24 h continuous dark conditions. The replacement of padding, addition of food and water, and other operations were undertaken in the condition that the intensity of red light was less than 1.0 lux. The period of this condition lasted for 28 days. In the last week, ORG was administered orally once a day for 1 week. The FST and TST were carried out 30 min after the last administration. Methods and data analysis were as described above.

[5] = 1750 mg/kg orally once per day for 14 consecutive days

Cc1cc(O)cc(OC2OC(CO)C(O)C(O)C2O)c1 [ORG, orcinol-1-O-β-D-glucopyranoside]
subacute toxicity: appearance, behavior, mental status, appetite, hair, color, breathing (rats [1]; [5]): nothing abnormal was found | subacute toxicity: survival (rats [1]; [5]): All rats survived | subacute toxicity: weight gain (rats [1]; [5]): the weight gain was normal | subacute toxicity: pathological section of visceral organs (rats [1]; 1750 mg/kg orally once per day for 14 days, sacrificed on day 14): no evident abnormalities | Time spent in the right quadrant (s) (mean ± SEM) (Kunming mice [2]; i.p. 30 min before retrieval on day 8, 1.75 mg/kg): 29.38 ± 2.16 s | Time spent in the right quadrant (s) (mean ± SEM) (Kunming mice [2]; i.p. 30 min before retrieval on day 8, 3.5 mg/kg): 35.52 ± 2.43 s | Time spent in the right quadrant (s) (mean ± SEM) (Kunming mice [2]; i.p. daily 30 min after training, retention test day 8, 1.75 mg/kg): 28.18 ± 1.70 s | Time spent in the right quadrant (s) (mean ± SEM) (Kunming mice [2]; i.p. daily 30 min after training, retention test day 8, 3.5 mg/kg): 34.24 ± 2.01 s | Duration of freezing (s) (mean ± S.E.) (rats [3]; 5 mg/kg): 203.90 ± 34.09 s | Duration of freezing (s) (mean ± S.E.) (rats [3]; 20 mg/kg): 100.70 ± 21.78 s | dose of the best efficacy (Kunming mice [4]; FST mice, ORG i.g. 24 h and 5 h before test): 3 mg/kg | Immobility time (s) (mean ± SEM) (Kunming mice [4]; FST mice, i.g. 24 h and 5 h before test, 0.093 mg/kg): 169.35 ± 4.32 s | Immobility time (s) (mean ± SEM) (Kunming mice [4]; FST mice, i.g., 0.186 mg/kg): 155.30 ± 9.19 s | Immobility time (s) (mean ± SEM) (Kunming mice [4]; FST mice, i.g., 0.3725 mg/kg): 137.57 ± 6.41 s | Immobility time (s) (mean ± SEM) (Kunming mice [4]; FST mice, i.g., 0.75 mg/kg): 139.45 ± 7.04 s | Immobility time (s) (mean ± SEM) (Kunming mice [4]; FST mice, i.g., 1.5 mg/kg): 127.23 ± 6.63 s | Immobility time (s) (mean ± SEM) (Kunming mice [4]; FST mice, i.g., 3 mg/kg): 114.41 ± 6.23 s | Immobility time (s) (mean ± SEM) (Kunming mice [4]; FST mice, i.g., 6 mg/kg): 129.76 ± 5.99 s | Immobility time (s) (mean ± SEM) (Kunming mice [4]; FST mice, i.g., 12 mg/kg): 122.71 ± 5.56 s | Immobility time (s) (mean ± SEM) (Kunming mice [4]; FST mice, i.g., 24 mg/kg): 121.57 ± 6.13 s | Immobility time (s) (mean ± SEM) (Kunming mice [4]; FST mice, i.g., 48 mg/kg): 135.36 ± 4.60 s | Immobility time (s) (mean ± SEM) (Kunming mice [4]; FST mice, i.g., 96 mg/kg): 145.34 ± 5.39 s | Immobility (% NS) (mean ± SEM) (Kunming mice [4]; FST mice, oral 3 mg/kg twice in 24 h, recorded 5 h after last treatment (Table 7)): 64.03 ± 7.20 % NS | onset of antidepressant effect after the second administration (Kunming mice [4]; FST mice, oral 3 mg/kg twice, 19 h apart): 2.5 h | maintenance of antidepressant effect (Kunming mice [4]; FST mice, oral 3 mg/kg twice, 19 h apart, time after second administration): at least 72 h | Immobility (% NS) (mean ± SEM) (Kunming mice [4]; FST mice, oral 3 mg/kg, 1 administration in 24 h, recorded 5 h after last treatment): 83.57 ± 6.66 % NS | Immobility (% NS) (mean ± SEM) (Kunming mice [4]; FST mice, oral 3 mg/kg, 2 administrations in 24 h, recorded 5 h after last treatment (Table 6)): 64.98 ± 5.96 % NS | Immobility (% NS) (mean ± SEM) (Kunming mice [4]; FST mice, oral 3 mg/kg, 3 administrations in 24 h, recorded 5 h after last treatment): 65.65 ± 9.67 % NS | Immobility (% NS) (mean ± SEM) (Kunming mice [4]; FST mice, oral 3 mg/kg, 4 administrations in 24 h, recorded 5 h after last treatment): 89.81 ± 6.50 % NS | Immobility (% NS) (mean ± SEM) (Kunming mice [4]; FST mice, oral 3 mg/kg, 5 administrations in 24 h, recorded 5 h after last treatment): 91.26 ± 5.93 % NS | Immobility (% NS) (mean ± SEM) (Kunming mice [4]; FST mice, oral 6 mg/kg once in 24 h, recorded 5 h after treatment (Table 7)): 80.70 ± 4.64 % NS | Immobility (% NS) (mean ± SEM) (Kunming mice [4]; FST mice, oral, dose 6 mg/kg (3 mg/kg twice, 19 h apart), 2 weeks after last administration): 99.54 ± 5.54 % NS | Immobility (% NS) (mean ± SEM) (Kunming mice [4]; FST mice, oral, dose 6 mg/kg (3 mg/kg twice, 19 h apart), 2.5 h after last administration): 73.63 ± 4.21 % NS | Immobility (% NS) (mean ± SEM) (Kunming mice [4]; FST mice, oral, dose 6 mg/kg (3 mg/kg twice, 19 h apart), 5 h after last administration): 71.92 ± 6.05 % NS | Immobility (% NS) (mean ± SEM) (Kunming mice [4]; FST mice, oral, dose 6 mg/kg (3 mg/kg twice, 19 h apart), 24 h after last administration): 62.83 ± 6.59 % NS | Immobility (% NS) (mean ± SEM) (Kunming mice [4]; FST mice, oral, dose 6 mg/kg (3 mg/kg twice, 19 h apart), 72 h after last administration): 77.33 ± 6.07 % NS | ED50 (Kunming mice [4]; Mus musculus): ~0.22 mg/kg | therapeutic index (TI) = TD50÷ED50 (Kunming mice [4]; mice, FST): > 7955 | therapeutic index (TI) = TD50÷ED50 (CMS model mice; CMS mice): > 2160 | Immobility time (s) (mean ± SEM) (CMS model mice; CMS mice, 2.5 mg/kg): 177.00 ± 11.78 s | Immobility time (s) (mean ± SEM) (CMS model mice; CMS mice, 5 mg/kg): 177.50 ± 12.39 s | Immobility time (s) (mean ± SEM) (CMS model mice; CMS mice, 10 mg/kg): 170.84 ± 10.48 s | Immobility time (s) (mean ± SEM) (CMS model mice; CMS mice, 20 mg/kg): 164.95 ± 11.36 s | Immobility time (s) (mean ± SEM) (CMS model mice; CMS mice, test 30 min after last dose, 1.25 mg/kg): 190.90 ± 12.94 s | best dose for the antidepressant effect (CMS model mice; CMS model mice, ORG oral): 20 mg/kg | ED50 (CMS model mice; Mus musculus, CMS model mice, ORG oral): 0.81 mg/kg | therapeutic index = TD50÷ED50 (DD model mice; DD mice): > 1182 | Immobility time (s) (mean ± SEM) (DD model mice; DD mice, 2.5 mg/kg): 174.27 ± 11.89 s | Immobility time (s) (mean ± SEM) (DD model mice; DD mice, 5 mg/kg): 161.70 ± 14.89 s | Immobility time (s) (mean ± SEM) (DD model mice; DD mice, 10 mg/kg): 151.86 ± 8.89 s | Immobility time (s) (mean ± SEM) (DD model mice; DD mice, 40 mg/kg): 156.60 ± 13.86 s | Immobility time (s) (mean ± SEM) (DD model mice; DD mice, test 30 min after last dose, 1.25 mg/kg): 180.27 ± 10.36 s | dose of the best efficacy (DD model mice; DD model mice, ORG oral): 10 mg/kg | ED50 (DD model mice; Mus musculus, DD model mice, ORG oral): ~1.48 mg/kg
